# Paper PMC8222254, “Self-assembly of an anion receptor with metal-dependent kinase inhibition and potent in vitro anti-cancer properties” (Nature Communications, 2021)
# Values joined by “and” are separate entries in the source; they are usually repeats but may differ in a detail not shown here. Equal entries are not always repeated.
# Legend:
# Assay in all cases: Kinase inhibition screen, cell-free 33P ATP assay at 10 μM
# Format in all cases: biochemical
# [1] = molecular target: 140 purified human kinases (Homo sapiens, UniProt P51812)
# Procedure, shortened: (§1)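 Each complex tested in duplicate at 10 μM; cell-free radiometric assay using ^33P ATP on purified enzymes. Hits mapped by HGNC symbol onto the kinome tree.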
# [2] = molecular target: 140 purified human kinases (Homo sapiens, UniProt P54764)
# Procedure, shortened: as §1
# [3] = molecular target: 140 purified human kinases (Homo sapiens, UniProt Q02750)
# Procedure, shortened: as §1
# [4] = molecular target: T1, 140 purified human kinases (Homo sapiens, UniProt Q12851); conditions: GCK
# T1 sequence (Q12851 1-820): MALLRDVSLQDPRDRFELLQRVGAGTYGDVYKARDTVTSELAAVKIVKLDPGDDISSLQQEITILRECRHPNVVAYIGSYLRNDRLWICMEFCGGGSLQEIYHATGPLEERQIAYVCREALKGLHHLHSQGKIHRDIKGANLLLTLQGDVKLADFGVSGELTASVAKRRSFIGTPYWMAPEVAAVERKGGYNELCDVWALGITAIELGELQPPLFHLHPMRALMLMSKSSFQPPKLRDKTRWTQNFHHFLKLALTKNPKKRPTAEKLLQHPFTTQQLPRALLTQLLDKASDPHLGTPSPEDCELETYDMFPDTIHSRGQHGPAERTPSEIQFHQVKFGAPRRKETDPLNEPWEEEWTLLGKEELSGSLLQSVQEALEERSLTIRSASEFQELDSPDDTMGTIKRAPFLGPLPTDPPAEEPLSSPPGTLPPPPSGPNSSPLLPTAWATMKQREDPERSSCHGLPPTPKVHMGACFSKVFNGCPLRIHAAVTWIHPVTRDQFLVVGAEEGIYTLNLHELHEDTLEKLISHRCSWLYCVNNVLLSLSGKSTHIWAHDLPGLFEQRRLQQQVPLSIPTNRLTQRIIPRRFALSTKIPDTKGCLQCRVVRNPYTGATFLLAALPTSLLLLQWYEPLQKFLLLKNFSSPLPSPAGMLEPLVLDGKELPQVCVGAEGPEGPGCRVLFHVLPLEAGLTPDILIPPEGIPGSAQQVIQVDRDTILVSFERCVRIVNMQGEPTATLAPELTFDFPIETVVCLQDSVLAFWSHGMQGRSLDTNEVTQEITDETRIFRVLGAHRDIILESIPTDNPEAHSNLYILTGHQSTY
# Procedure, shortened: as §1
# [5] = molecular target: T2, 140 purified human kinases (Homo sapiens, UniProt Q8IYT8)
# T2 sequence (Q8IYT8 1-1036): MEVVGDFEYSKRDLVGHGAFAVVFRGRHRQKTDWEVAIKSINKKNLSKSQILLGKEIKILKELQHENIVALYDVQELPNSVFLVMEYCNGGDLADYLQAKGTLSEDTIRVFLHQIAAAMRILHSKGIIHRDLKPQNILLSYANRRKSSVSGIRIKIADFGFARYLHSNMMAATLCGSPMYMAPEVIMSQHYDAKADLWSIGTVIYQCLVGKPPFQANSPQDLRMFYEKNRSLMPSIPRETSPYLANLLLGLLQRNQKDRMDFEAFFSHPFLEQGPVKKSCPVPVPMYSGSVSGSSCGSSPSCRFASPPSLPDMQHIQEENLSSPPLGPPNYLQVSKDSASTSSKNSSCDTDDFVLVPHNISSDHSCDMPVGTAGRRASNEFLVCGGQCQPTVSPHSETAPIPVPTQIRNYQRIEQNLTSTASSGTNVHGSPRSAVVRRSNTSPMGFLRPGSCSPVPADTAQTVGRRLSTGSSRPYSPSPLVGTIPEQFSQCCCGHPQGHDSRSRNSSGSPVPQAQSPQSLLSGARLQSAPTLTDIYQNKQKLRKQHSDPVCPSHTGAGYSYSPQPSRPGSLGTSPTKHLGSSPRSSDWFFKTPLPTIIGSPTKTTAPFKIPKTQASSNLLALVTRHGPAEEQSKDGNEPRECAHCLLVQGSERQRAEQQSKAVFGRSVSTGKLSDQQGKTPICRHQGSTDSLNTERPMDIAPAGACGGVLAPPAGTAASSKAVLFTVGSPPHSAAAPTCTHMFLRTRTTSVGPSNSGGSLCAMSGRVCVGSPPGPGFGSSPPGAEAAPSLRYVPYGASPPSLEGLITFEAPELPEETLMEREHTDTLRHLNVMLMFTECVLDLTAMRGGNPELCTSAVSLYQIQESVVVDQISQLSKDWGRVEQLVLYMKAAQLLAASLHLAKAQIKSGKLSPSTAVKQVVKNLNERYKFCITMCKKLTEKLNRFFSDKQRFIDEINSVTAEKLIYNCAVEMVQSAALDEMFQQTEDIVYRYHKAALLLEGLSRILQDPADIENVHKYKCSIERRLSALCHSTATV
# Procedure, shortened: as §1
# 140 purified human kinases (Homo sapiens, UniProt P54764), sequence (P54764 20-986): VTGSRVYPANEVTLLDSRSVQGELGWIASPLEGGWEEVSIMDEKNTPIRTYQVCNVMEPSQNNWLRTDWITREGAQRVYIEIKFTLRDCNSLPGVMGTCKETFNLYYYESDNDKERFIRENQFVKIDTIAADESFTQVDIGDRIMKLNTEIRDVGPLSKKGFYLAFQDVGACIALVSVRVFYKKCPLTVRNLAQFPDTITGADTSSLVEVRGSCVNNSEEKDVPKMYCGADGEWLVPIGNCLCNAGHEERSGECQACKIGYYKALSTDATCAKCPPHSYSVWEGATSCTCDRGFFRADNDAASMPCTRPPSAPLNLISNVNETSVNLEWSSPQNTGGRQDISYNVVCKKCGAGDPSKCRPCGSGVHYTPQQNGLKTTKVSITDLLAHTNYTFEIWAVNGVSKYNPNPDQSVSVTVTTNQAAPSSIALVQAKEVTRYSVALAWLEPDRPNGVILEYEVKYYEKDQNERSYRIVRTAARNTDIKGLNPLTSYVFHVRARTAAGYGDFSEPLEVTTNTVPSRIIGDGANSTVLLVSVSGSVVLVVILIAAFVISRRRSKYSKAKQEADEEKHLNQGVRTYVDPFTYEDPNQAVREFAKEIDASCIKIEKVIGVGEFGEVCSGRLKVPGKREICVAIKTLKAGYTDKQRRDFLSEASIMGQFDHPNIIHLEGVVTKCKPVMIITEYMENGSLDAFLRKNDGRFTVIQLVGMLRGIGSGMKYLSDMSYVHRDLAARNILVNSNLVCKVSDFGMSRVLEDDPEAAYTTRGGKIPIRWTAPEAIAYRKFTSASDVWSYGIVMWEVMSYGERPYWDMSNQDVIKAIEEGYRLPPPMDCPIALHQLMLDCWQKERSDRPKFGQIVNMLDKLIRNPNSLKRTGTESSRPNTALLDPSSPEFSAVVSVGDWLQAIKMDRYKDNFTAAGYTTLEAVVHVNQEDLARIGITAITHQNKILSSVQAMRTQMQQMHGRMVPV
# 140 purified human kinases (Homo sapiens, UniProt Q02750), sequence (Q02750 whole entry): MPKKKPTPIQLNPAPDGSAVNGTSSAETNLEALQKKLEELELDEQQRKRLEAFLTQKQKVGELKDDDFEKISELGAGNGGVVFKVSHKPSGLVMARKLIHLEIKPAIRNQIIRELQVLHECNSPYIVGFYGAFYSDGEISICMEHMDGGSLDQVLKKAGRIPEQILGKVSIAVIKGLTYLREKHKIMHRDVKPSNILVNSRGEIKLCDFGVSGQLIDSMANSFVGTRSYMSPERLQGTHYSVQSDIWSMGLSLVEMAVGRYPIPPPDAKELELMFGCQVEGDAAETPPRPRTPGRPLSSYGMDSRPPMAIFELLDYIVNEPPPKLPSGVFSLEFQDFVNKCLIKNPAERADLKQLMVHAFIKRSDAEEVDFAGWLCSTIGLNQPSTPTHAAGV
# 140 purified human kinases (Homo sapiens, UniProt P51812), sequence (P51812 whole entry): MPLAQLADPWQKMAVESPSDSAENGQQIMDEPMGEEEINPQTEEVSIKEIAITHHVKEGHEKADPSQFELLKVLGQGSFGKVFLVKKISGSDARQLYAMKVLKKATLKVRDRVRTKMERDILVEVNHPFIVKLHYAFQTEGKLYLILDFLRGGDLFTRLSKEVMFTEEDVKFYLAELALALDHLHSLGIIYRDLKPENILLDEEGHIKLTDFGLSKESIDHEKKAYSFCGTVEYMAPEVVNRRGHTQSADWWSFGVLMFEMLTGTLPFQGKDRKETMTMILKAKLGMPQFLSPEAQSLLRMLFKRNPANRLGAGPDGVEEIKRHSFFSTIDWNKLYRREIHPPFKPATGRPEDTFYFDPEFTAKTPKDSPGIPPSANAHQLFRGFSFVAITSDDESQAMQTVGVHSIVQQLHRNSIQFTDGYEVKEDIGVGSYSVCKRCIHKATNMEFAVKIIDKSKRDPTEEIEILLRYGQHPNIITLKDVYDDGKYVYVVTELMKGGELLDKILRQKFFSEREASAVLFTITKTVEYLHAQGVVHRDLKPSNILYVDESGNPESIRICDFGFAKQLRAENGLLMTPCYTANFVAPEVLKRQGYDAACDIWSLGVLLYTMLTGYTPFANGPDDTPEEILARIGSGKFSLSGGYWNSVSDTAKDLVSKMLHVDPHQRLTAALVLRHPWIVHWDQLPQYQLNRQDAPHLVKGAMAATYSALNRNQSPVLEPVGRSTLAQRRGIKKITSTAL
smiles,measurement,setting,value
[Cu+2].[Cu+2].[Cu+2].c1ccc(-c2csc(NCCN(CCNc3nc(-c4ccccn4)cs3)CCNc3nc(-c4ccccn4)cs3)n2)nc1.c1ccc(-c2csc(NCCN(CCNc3nc(-c4ccccn4)cs3)CCNc3nc(-c4ccccn4)cs3)n2)nc1 [[L2Cu3]6+],% Inhibition Run 1,[1]; RSK2,87.4%
same,% Inhibition Run 2,[1]; RSK2,87.7%
same,"% Inhibition, Mean",[1]; RSK2,88%
same,mean % activity,[1]; RSK2,12%
same,% activity,"[1]; RSK2, Run 1",12.6%
same,% activity,"[1]; RSK2, Run 2",12.3%
same,% Inhibition Run 1,[2]; EPH-A4,4.5%
same,% Inhibition Run 2,[2]; EPH-A4,-3.1%
same,"% Inhibition, Mean",[2]; EPH-A4,0.7%
same,mean % activity,[2]; EPH-A4,99%
same,% activity,"[2]; EPH-A4, Run 1",95.5%
same,% activity,"[2]; EPH-A4, Run 2",103.1%
same,% Inhibition Run 1,[3]; MKK1,34%
same,% Inhibition Run 2,[3]; MKK1,8.9%
same,"% Inhibition, Mean",[3]; MKK1,21%
same,mean % activity,[3]; MKK1,79%
same,% activity,"[3]; MKK1, Run 1",66%
same,% activity,"[3]; MKK1, Run 2",91.1%
same,% Inhibition Run 1,[4],83.9%
same,% Inhibition Run 2,[4],84.3%
same,"% Inhibition, Mean",[4],84%
same,mean % activity,[4],16%
same,% activity,[4]; Run 1,16.1%
same,% activity,[4]; Run 2,15.7%
same,% Inhibition Run 1,[5]; ULK2,48%
same,% Inhibition Run 2,[5]; ULK2,52.6%
same,"% Inhibition, Mean",[5]; ULK2,50%
same,mean % activity,[5]; ULK2,50%
same,% activity,"[5]; ULK2, Run 1",52%
same,% activity,"[5]; ULK2, Run 2",47.4%
CC(=O)[O-].CC(=O)[O-].CC(=O)[O-].CC(=O)[O-].CC(=O)[O-].CC(=O)[O-].[Zn+2].[Zn+2].[Zn+2].c1ccc(-c2csc(NCCN(CCNc3nc(-c4ccccn4)cs3)CCNc3nc(-c4ccccn4)cs3)n2)nc1.c1ccc(-c2csc(NCCN(CCNc3nc(-c4ccccn4)cs3)CCNc3nc(-c4ccccn4)cs3)n2)nc1 [[L2Zn3]6+],"% Inhibition, Mean",[1]; RSK2,44%
same,"% Inhibition, Run 1 / Run 2",[1]; RSK2,50% and 39%
same,mean % activity,[1]; RSK2,56%
same,% activity,"[1]; RSK2, duplicate runs",50% and 61%
same,"% Inhibition, Mean",[2]; EPH-A4,27%
same,"% Inhibition, Run 1 / Run 2",[2]; EPH-A4,30% and 25%
same,mean % activity,[2]; EPH-A4,73%
same,% activity,"[2]; EPH-A4, duplicate runs",70% and 75%
same,"% Activation, Mean value",[3]; MKK1,3%
same,"% Inhibition, Mean",[3]; MKK1,-3%
same,"% Inhibition, Run 1 / Run 2",[3]; MKK1,-3%
same,mean % activity,[3]; MKK1,103%
same,% activity,"[3]; MKK1, duplicate runs",103%
same,"% Inhibition, Mean",[4],83%
same,"% Inhibition, Run 1 / Run 2",[4],88% and 78%
same,mean % activity,[4],17%
same,% Activity inhibition Mean,[4]; 10 µM,83.0%
same,% Activity inhibition Run 1,[4]; 10 µM,88%
same,% Activity inhibition Run 2,[4]; 10 µM,78%
same,% Activity remaining Run 1,[4]; 10 µM,12%
same,% Activity remaining Run 2,[4]; 10 µM,22%
same,% activity,[4]; duplicate runs,12% and 22%
same,"% Activation, Mean value",[5]; ULK2,2%
same,"% Inhibition, Mean",[5]; ULK2,-2%
same,mean % activity,[5]; ULK2,102%
same,% activity,"[5]; ULK2, duplicate runs",95% and 109%
